According to US20230371508A1, “COMPOSITIONS AND METHODS FOR KILLING INSECT AND NON-INSECT PESTS” (The United States of America, as represented by the …, priority 2018, published 2023):
In brackets after ≈: the same amount, converted by molar mass. Entries after “also recorded” stand apart in the source; their conditions may differ. Where two headings read alike, the source gives them in different places.

Columns and labels:
[1] = test system: S. invicta workers; test: Fumigant toxicity in sealed glass flask; format: in vivo, Solenopsis invicta; conditions: for LC50 / mortality at 1.43 µg/mL: Solenopsis invicta; for fumigant toxicity against S. invicta (in words): in vivo
Method: A 250-ml glass flask (the whole volume is 280 ml) was used to house worker ants in fumigant toxicity bioassays. Two micro-liter of acetone solution of the tested compound was applied onto a paraffin film, which was used to seal the flask with ants. The treated spot of the paraffin film faced the inside of the flask. The upper part of the flask was coated with Fluon® to prevent ants from contacting the test material. Two experiments were conducted. […] LC50 value was established using 5 dosages. Each dosage was replicated 3 times for each of 3 colonies. Each replicate consisted of 15 to 26 ants. Ants that could not stand by themselves were considered dead. Dead ants were counted after 24 h.

[2] = test system: D. suzukii; test: Insecticidal activity on larvae and pupae development and adult emergence in pre-infested blueberries (dip); format: in vivo, Drosophila suzukii; conditions: for Adults / Larvae / Pupae: pre-infested berries soaked 2 min in 1% solution, assessed after 10 days at room temperature, mean of three replicates (standard error)
Method: Impacts of MB and other compounds on D. suzukii control: To investigate the acute toxicity of some compounds of formula 1 against D. suzukii, a published procedure was followed (Cuthbertson, A. G. S., et al., Insects, 5: 488-498 (2014)). First, mixed-sex adults D. suzukii (100) were introduced into a plastic cage (30×30×30 cm) and reared on blueberries (100) for 4 days. After that, the infested blueberries were taken out from the cage. Half of the blueberries (50) were dipped in 100 mL aqueous emulsion of each compound listed in Table 1 at 1% concentration for 2 min as treatment, while the other half of the blueberries (50) were dipped in DI water for 2 min as blank control. Then the corresponding blueberries were separately taken out, placed in two different Petri dishes, and allowed to air dry for 2 h. Second, treatment and blank control blueberries were respectively stored in two plastic cups (32 oz) with closed caps and incubated at room temperature for 10 days. The emergence of adults was then subsequently assessed. The developments of larvae and pupae were further inspected by dissection of the treatment and blank control berries. Each treatment and blank control was repeated three times.

[3] = test system: H. halys nymphs; test: Nymphicidal toxicity, treated filter paper in glass vial; format: in vivo; conditions: for LC50 (95% CL): 24 hr
Method: Toxicities of MB, some compounds of formula 1, and commercial pesticides on H. halys nymphs: The bioassays were carried out in glass vials (20 mL), following a published procedure (Nielsen, A. L., et al., J. Econ. Entomol., 101: 1439-1442 (2008)). Filter paper was cut into round shape pieces (2.4 cm diameter). 50 μL acetone solution of one derivative or commercial pesticide with different concentrations was loaded onto the filter paper evenly, and the filter paper was dried for 1 min and then put into the bottom of vial. A small piece of green bean was put on the filter paper in the vial as food source. Different stages of H. halys nymphs were introduced into the vial and capped with a cotton ball. For each stage, 30 nymphs were used for each amount. For the nymphs of the first instar, 10 nymphs were put into 1 vial. For the nymphs of the second and third instar, 5 nymphs were put into 1 vial. For the nymphs of the fourth instar, 3 nymphs were put into 1 vial. For the nymphs of the fifth instar, 2 nymphs were put into 1 vial. The mortality was assessed after 24 hr.

[4] = test system: L. dispar larvae; test: Larvicidal toxicity, treated filter paper in Petri dish; format: in vivo; conditions: for LC50 (95% CL): 1st stage larvae, 24 hr; for larvicidal toxicity against L. dispar (in words): in vivo; for decreased toxicities compared with MB: from LC50 values
Method: Toxicities of MB and some compounds of formula 1 on L. dispar larvae: The bioassays were carried out in plastic Petri dish loaded with filter paper, following a published procedure (Nielsen 2008). 600 μL acetone solution of one derivative with different concentrations was loaded onto the filter paper (90 mm diameter) evenly, and the filter paper was dried for 2 min and then put into the bottom of Petri dish. 10 L. dispar larvae were put onto the Petri dish and covered with a lid. 30 larvae were used for each amount. The mortality was assessed after 24 hr.

[5] = test system: Plutella xylostella eggs; test: Ovicidal toxicity, direct spray on eggs; format: in vivo; conditions: hatchability after 10 days; 0.05% and 0.1% concentrations (FIG. 3)
Description: (§1) Ovicidal toxicities of MB and some compounds of formula 1: The aqueous solutions of one of the compounds of formula 1 with designated concentrations with different concentrations of active ingredient (AI) were separately stored in glass spray bottles according to a published procedure (Cuthbertson 2014). The eggs (10 for H. halys and 100 for P. xylostella) were laid on filter papers in Petri dishes. Different aqueous insecticidal solutions were sprayed on the surfaces of different eggs three times (˜0.5 mL) to completely cover the treatment areas. Then the Petri dishes were covered with lids and maintained in a fume hood for 10 days. The Petri dishes were then inspected for presence of nymph/larvae development or numbers of unhatched eggs.

[6] = test system: H. halys eggs; test: Ovicidal toxicity, direct spray on eggs; format: in vivo; conditions: eggs sprayed, 10 days
Description: as §1

[7] = Release rate (evaporation from cotton ball in tube); format: physicochemical; conditions: room temperature, hood air flow 129 FPM
Method: Release rate: Release rate tests of selective compounds were carried out in the laboratory. 1 mL of each compound was loaded on a cotton ball in a polypropylene flex tube (1.5 mL Eppendorf micro-centrifuge tube, VWR International, Radnor, PA). The tubes were hung in the hood with air flow of 129 FPM. At 2 pm on each weekday, the tubes were weighed and recorded (Zhang, A., et al., Environ. Entomol., 37: 719-724 (2008)). Each treatment was replicated 5 times.

[8] = test system: S. invicta workers; conditions: for increase of mean mortality compared with MB / mean mortality: dose 77.9 μg/ant, 24 h
Method: Fire ant bioassays were conducted in USDA, ARS Stoneville laboratory at 25° C., 80% R.H. with a 12:12 (L:D) photoperiod. Contact toxicities of MB and some compounds of formula 1 against fire ants: Topical application was used for contact toxicity bioassay. Only large workers were used for a purpose of relatively uniform body weight and ease of handling. For all compounds, acetone was used as a solvent. The solution was applied using a 0.779 μl capillary tube. Two experiments were conducted for assessing contact toxicity. […] In order to investigate the structure-activity relationship, LD50 values were also established for MB and EB. […] For each LD50 value, 5 doses of benzoates were used. Each dose was replicated 3 times. Each replicate consisted of 13 to 18 ants. Treated ants were placed in a 30-ml capped cup and dead ants were counted after 24 h.

[9] = Sigma-Aldrich SDS; cited from earlier work
[10] = test system: H. halys nymphs; conditions: 24 hr, copied from previous research, cited from earlier work
[11] = 24 h, read-out: mean LC50 value, mean over colonies, 24 h
[12] = 24 h, read-out: mean mortality, dosage 1.43 μg/ml, 24 h

## C=COC(=O)c1ccccc1 [VB, vinyl benzoate]
[1]; 24 h, colony 1, 24 h
  LC50: 0.95 µg/mL (≈ 6.41 µM)
[1]; 24 h, colony 2, 24 h
  LC50: 0.77 µg/mL (≈ 5.2 µM)
[1]; 24 h, colony 3, 24 h
  LC50: 0.96 µg/mL (≈ 6.48 µM)
[1]; [11]
  LC50: 0.89 µg/mL (≈ 6.01 µM)
[1]; [12]
  mortality at 1.43 µg/mL: ~100%
[1]
  fumigant toxicity against S. invicta (in words): powerful fumigant toxicities
[2]
  Adults: 0
  Larvae: 0
  Pupae: 0
[3]; 2nd stage nymphs
  LC50 (95% CL): 1.131 (0.757-1.337) μL/vial
[4]
  LC50 (95% CL): 0.065 (0.059-0.071) mg/cm^2
  larvicidal toxicity against L. dispar (in words): highest larvicidal toxicity
[4]; ratio of LC50 values
  times more toxic than commercial pesticide acetamiprid: 3.4 times
  times more toxic than commercial pesticide pyriproxyfen: 1.3 times
[5]
  ovicidal toxicity against P. xylostella eggs (in words): highest toxicity
[6]
  LC50 (95% CL): 0.017 (0.010-0.024) mg/cm^2

## COC(=O)c1ccccc1OC [M2MOB, methyl 2-methoxybenzoate]
[1]
  fumigant toxicity against S. invicta (in words): significantly reduced
[7]
  first order evaporation rate constant k (exponent of fitted curve): 8E-04
[2]
  Adults: 0
  Larvae: 0
  Pupae: 0
[3]; 2nd stage nymphs
  LC50 (95% CL): 1.530 (1.309-1.951) μL/vial
[4]
  LC50 (95% CL): 0.230 (0.170-0.294) mg/cm^2
  decreased toxicities compared with MB: 50%
[6]
  LC50 (95% CL): 0.011 (0.006-0.015) mg/cm^2
[8]; colony 1, 24 h
  LD50: 67.73 μg/ant
[8]; colony 2, 24 h
  LD50: 96.43 μg/ant
[8]; colony 3, 24 h
  LD50: 78.34 μg/ant
[8]
  increase of mean mortality compared with MB: 7 times
  mean mortality: 55.74%

## COC(=O)c1cccc(OC)c1 [M3MOB, methyl 3-methoxybenzoate]
[1]; 24 h, colony 1, 24 h
  LC50: 0.64 µg/mL (≈ 3.85 µM)
[1]; 24 h, colony 2, 24 h
  LC50: 0.54 µg/mL (≈ 3.25 µM)
[1]; 24 h, colony 3, 24 h
  LC50: 0.65 µg/mL (≈ 3.91 µM)
[1]; [11]
  LC50: 0.61 µg/mL (≈ 3.67 µM)
[1]; [12]
  mortality at 1.43 µg/mL: ~100%
[2]
  Adults: 0
  Larvae: 0
  Pupae: 0
[3]; 3rd stage nymphs
  LC50 (95% CL): 1.509 (1.322-1.792) μL/vial
[4]
  LC50 (95% CL): 0.234 (0.216-0.258) mg/cm^2
  decreased toxicities compared with MB: 50%
[6]
  LC50 (95% CL): 0.016 (0.008-0.026) mg/cm^2
[8]; colony 1, 24 h
  LD50: 112.72 μg/ant
[8]; colony 2, 24 h
  LD50: 81.78 μg/ant
[8]; colony 3, 24 h
  LD50: 47.52 μg/ant
[8]
  increase of mean mortality compared with MB: 6 times
  mean mortality: 47.23%
[9]
  hazard according to Safety Data Sheet (SDS) from the producer: not even considered as a hazardous substance

## COC(=O)c1ccccc1 [MB, methyl benzoate]
[1]; 24 h, colony 1, 24 h, read-out: LC50
  LC50: 0.77 µg/mL (≈ 5.66 µM)
[1]; 24 h, colony 2, 24 h, read-out: LC50
  LC50: 0.66 µg/mL (≈ 4.85 µM)
[1]; 24 h, colony 3, 24 h, read-out: LC50
  LC50: 0.82 µg/mL (≈ 6.02 µM)
[1]; 24 h, dosage 1.43 μg/ml, 24 h, read-out: mean mortality
  mortality at 1.43 µg/mL: ~100%
[1]; 24 h, mean over colonies, 24 h, read-out: mean LC50 value
  LC50: 0.75 µg/mL (≈ 5.51 µM)
[1]; dosage 1.43 μg/ml, 24 h
  mean mortality: 100%
[1]
  fumigant toxicity against S. invicta (in words): powerful fumigant toxicities
[10]; 1st stage nymphs
  LC50 (95% CL): 1.03 (0.93-1.10) μL/vial
[10]; 2nd stage nymphs
  LC50 (95% CL): 1.01 (0.86-1.12) μL/vial
[10]; 3rd stage nymphs
  LC50 (95% CL): 1.23 (1.12-1.33) μL/vial
[10]; 4th stage nymphs
  LC50 (95% CL): 2.39 (2.19-2.60) μL/vial
[10]; 5th stage nymphs
  LC50 (95% CL): 1.77 (1.60-1.93) μL/vial
[7]
  first order evaporation rate constant k (exponent of fitted curve): 0.162
[2]
  Adults: 0
  Larvae: 0
  Pupae: 0
[4]
  LC50 (95% CL): 0.114 (0.091-0.134) mg/cm^2
[6]
  LC50 (95% CL): 0.020 (0.012-0.026) mg/cm^2
[8]; colony 1, 24 h
  LD50: 149.39 μg/ant
[8]; colony 2, 24 h
  LD50: 93.65 μg/ant
[8]; colony 3, 24 h
  LD50: 128.45 μg/ant
[8]
  mean mortality: 7.67%

## CCCCCCOC(=O)c1ccccc1 [nHB, n-hexyl benzoate]
[2]; 1% concentration on 4 days pre-infested blueberries, 10 days incubation
  insecticidal toxicity against D. suzukii (in words): did not show any insecticidal activities
[2]
  Adults: 33.7(7.4)
  Larvae: 7.0(1.0)
  Pupae: 40.3(7.0)
[3]; in vivo
  toxicity against H. halys nymphs (in words): did not show toxicities
[4]
  larvicidal toxicity against L. dispar (in words): did not show any toxicities
[8]; colony 1, 24 h
  LD50: 37.1 μg/ant
[8]; colony 2, 24 h
  LD50: 42.23 μg/ant
[8]; colony 3, 24 h
  LD50: 28.64 μg/ant
[8]; in vivo
  contact toxicity against S. invicta (in words): comparable results; also recorded: potent contact toxicities
[9]
  hazard according to Safety Data Sheet (SDS) from the producer: neither known OSHA hazards nor aquatic toxicity
